How the values were obtained:
[1] = target: BACE2 (Homo sapiens (Human), UniProt Q9Y5Z0); test: In vitro enzymatic BACE2 FRET assay; format: biochemical; settings: read-out: IC50 IP (μM) BACE2 Enzyme
From the text: (§1) In Vitro Enzymatic BACE1 and BACE2 FRET (Fluorescence Resonance Energy Transfer) Assays (Enzyme Assay Data in Table 1)

[2] = target: T1, BACE1 (Homo sapiens (Human), UniProt P56817); test: BACE1 cell assay; format: cell-based
Target sequence in this assay (P56817 46-501, species assumed): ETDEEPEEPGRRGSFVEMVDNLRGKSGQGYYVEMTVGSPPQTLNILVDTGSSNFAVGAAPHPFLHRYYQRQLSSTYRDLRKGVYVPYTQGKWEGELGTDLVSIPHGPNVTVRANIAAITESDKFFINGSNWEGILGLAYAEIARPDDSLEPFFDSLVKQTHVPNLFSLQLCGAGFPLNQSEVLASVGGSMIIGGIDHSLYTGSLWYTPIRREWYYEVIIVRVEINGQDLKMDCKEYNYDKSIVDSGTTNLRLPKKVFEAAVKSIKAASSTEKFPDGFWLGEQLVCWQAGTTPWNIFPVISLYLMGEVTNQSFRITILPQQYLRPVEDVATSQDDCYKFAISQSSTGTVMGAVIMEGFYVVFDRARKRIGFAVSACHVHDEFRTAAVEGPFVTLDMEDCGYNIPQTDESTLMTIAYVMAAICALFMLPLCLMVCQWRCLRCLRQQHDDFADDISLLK

[3] = target: Cathepsin D (CatD) (Homo sapiens (Human), UniProt P07339); test: CatD assay; format: biochemical; settings: read-out: IC50 IP (μM) CatD
[4] = target: T1, BACE1; test: In vitro enzymatic BACE1 FRET assay; format: biochemical; settings: read-out: IC50 IP (μM) BACE1 Enzyme
Target sequence in this assay (P56817 46-501): as the sequence (P56817 46-501, species assumed) above
From the text: as §1

[5] = read-out: IC50 IP (μM) BACE1 Cell

Chain of BACE2 (Q9Y5Z0 63-518): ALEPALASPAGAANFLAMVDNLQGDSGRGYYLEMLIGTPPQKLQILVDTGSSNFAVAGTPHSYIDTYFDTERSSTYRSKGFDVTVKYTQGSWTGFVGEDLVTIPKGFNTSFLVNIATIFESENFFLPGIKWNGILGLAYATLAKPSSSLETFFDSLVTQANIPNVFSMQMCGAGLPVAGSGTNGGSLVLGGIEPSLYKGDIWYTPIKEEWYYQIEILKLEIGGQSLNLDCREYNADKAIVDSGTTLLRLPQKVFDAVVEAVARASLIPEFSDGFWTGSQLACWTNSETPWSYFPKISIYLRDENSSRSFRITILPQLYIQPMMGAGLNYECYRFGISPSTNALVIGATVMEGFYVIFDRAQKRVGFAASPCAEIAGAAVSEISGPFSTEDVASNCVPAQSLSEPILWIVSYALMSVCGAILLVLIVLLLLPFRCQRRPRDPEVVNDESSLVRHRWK
Chain of Cathepsin D (CatD) (P07339 65-412, species assumed): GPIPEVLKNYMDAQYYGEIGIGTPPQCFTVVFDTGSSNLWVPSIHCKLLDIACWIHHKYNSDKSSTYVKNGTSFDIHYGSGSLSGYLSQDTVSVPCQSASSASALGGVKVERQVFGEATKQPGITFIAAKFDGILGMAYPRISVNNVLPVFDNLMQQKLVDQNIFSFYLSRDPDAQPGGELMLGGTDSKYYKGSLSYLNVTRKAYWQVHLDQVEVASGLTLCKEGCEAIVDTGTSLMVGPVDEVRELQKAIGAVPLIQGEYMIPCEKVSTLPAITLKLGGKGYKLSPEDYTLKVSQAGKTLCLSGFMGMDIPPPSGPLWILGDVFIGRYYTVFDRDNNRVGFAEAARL

SMILES | IC50 [1] [µM] | IC50 [2] [µM] | IC50 [3] [µM] | IC50 [4] [µM] | IC50 [2, 5] [µM]
C[C@]1(c2cc(/C=C(\F)c3ccc(C#N)cn3)ccc2F)N=C(N)S[C@@]2(C(N)=O)C[C@H]21 [Example 243, (1S,5S,6S)-3-amino-5-(5-((Z)-2-(5-cyanopyridin-2-yl)-2-fluorovinyl)-2-fluorophenyl)-5-methyl-2-thia-4-azabicyclo[4.1.0]hept-3-ene-1-carboxamide] | 0.043 | 0.0022 | 412 | 0.003 | –
C#CCOc1cnc(/C(F)=C/c2cnc(F)c([C@@]3(C)N=C(N)S[C@@]4(C(=O)N5CC[C@@H](F)C5)C[C@H]43)c2)cn1 [Example 295, ((1S,5S,6S)-3-amino-5-(2-fluoro-5-((Z)-2-fluoro-2-(5-(prop-2-yn-1-yloxy)pyrazin-2-yl)vinyl)pyridin-3-yl)-5-methyl-2-thia-4-azabicyclo[4.1.0]hept-3-en-1-yl)((R)-3-fluoropyrrolidin-1-yl)methanone] | 0.078 | – | 58.6 | 0.0008 | 0.0004
CC(=O)[C@]12C[C@H]1[C@@](C)(c1cc(/C=C(\F)c3ccc(C#N)cn3)ccc1F)N=C(N)S2 [Example 238, 6-((Z)-2-(3-((1S,5S,6S)-1-acetyl-3-amino-5-methyl-2-thia-4-azabicyclo[4.1.0]hept-3-en-5-yl)-4-fluorophenyl)-1-fluorovinyl)nicotinonitrile] | 0.245 | 0.0066 | 892 | 0.0121 | –
C#CCOc1cnc(/C(F)=C/c2cnc(F)c([C@@]3(C)N=C(N)S[C@@]4(C(=O)OC)C[C@H]43)c2)cn1 [Example 294, (1S,5S,6S)-methyl 3-amino-5-(2-fluoro-5-((Z)-2-fluoro-2-(5-(prop-2-yn-1-yloxy)pyrazin-2-yl)vinyl)pyridin-3-yl)-5-methyl-2-thia-4-azabicyclo[4.1.0]hept-3-ene-1-carboxylate methanone] | 2.76 | – | 400 | 0.0089 | 0.0949
COC[C@]12C[C@H]1[C@@](C)(c1cc(/C=C(\F)c3cnc(OCC(F)F)cn3)ccc1F)N=C(N)S2 [Example 266] | 1.58 | – | 409 | 0.591 | 1.51
CN(C)C(=O)[C@]12C[C@H]1[C@@](C)(c1cc(/C=C(\F)c3cnc(OCC4CC4(F)F)cn3)ccc1F)N=C(N)S2 (stereo partly drawn) [Example 215, (1S,5S,6S)-3-amino-5-(5-((Z)-2-(5-((2,2-difluorocyclopropyl)methoxy)pyrazin-2-yl)-2-fluorovinyl)-2-fluorophenyl)-N,N,5-trimethyl-2-thia-4-azabicyclo[4.1.0]hept-3-ene-1-carboxamide] | 0.051 | – | 121 | 0.037 | 0.262
CNC(=O)[C@]12C[C@H]1[C@@](C)(c1cc(/C=C(\F)c3cnc(OCC(C)=O)cn3)ccc1F)N=C(N)S2 [Example 152, (1S,5S,6S)-3-amino-5-(2-fluoro-5-((Z)-2-fluoro-2-(5-(2-oxopropoxy)pyrazin-2-yl)vinyl)phenyl)-N,5-dimethyl-2-thia-4-azabicyclo[4.1.0]hept-3-ene-1-carboxamide] | 1.51 | – | 71.8 | 0.052 | 0.0846
CN(C)C(=O)[C@]12C[C@H]1[C@@](C)(c1cc(/C=C(\F)I)ccc1F)N=C(N)S2 [Example 206, (1S,5S,6S)-3-amino-5-(2-fluoro-5-((E)-2-fluoro-2-iodovinyl)phenyl)-N,N,5-trimethyl-2-thia-4-azabicyclo[4.1.0]hept-3-ene-1-carboxamide] | 0.008 | – | 12.2 | 0.01 | 0.093
COc1ccc(/C(F)=C/c2ccc(F)c([C@@]3(C)N=C(N)S[C@@]4(C(=O)N5CCCC5)C[C@H]43)c2)nc1 [Example 104, ((1S,5S,6S)-3-amino-5-(2-fluoro-5-((Z)-2-fluoro-2-(5-methoxypyridin-2-yl)vinyl)phenyl)-5-methyl-2-thia-4-azabicyclo[4.1.0]hept-3-en-1-yl)(pyrrolidin-1-yl)methanone] | 0.144 | – | 185 | 0.0226 | 0.0221
